# Laboratory results reported in patent US8987249B2, “Substituted 2-Aza-bicyclo[2.2.1]heptane-3-carboxylic acid (benzyl-cyano-methyl)-amides inhibitors of Cathepsin C” (Boehringer Ingelheim International GmbH, priority 2013, dated 2015).
# Key:
# [1] = molecular target: recombinant human DPPI (Cathepsin C) (Homo sapiens (Human), UniProt P53634); assay: Inhibition of human DPPI (Cathepsin C); assay type: biochemical; details: substrate Gly-Arg-AMC
# How it was run: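 Recombinant human DPPI in MES buffer pH 6.0 (5 mM DTT, 0.1% BSA); fluorogenic substrate at 50 μM final, 30 min at room temperature, stopped with 1 μM Gly-Phe-DMK. Background-subtracted fluorescence expressed as percent of vehicle control; IC50 derived.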
# [2] = molecular target: recombinant human Cathepsin K (Homo sapiens (Human), UniProt P43235); assay: Inhibition of human Cathepsin K; assay type: biochemical; details: substrate Z-Gly-Pro-Arg-AMC
# recombinant human Cathepsin K, sequence (P43235 115-329): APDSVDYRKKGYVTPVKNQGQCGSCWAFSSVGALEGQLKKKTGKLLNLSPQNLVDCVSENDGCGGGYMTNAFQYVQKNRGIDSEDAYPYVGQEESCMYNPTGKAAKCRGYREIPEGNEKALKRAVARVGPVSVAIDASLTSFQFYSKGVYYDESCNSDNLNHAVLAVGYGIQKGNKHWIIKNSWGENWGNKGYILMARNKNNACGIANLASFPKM
# How it was run: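 Proenzyme activated in pH 3.5 sodium acetate for 30 min at room temperature. Enzyme (2 ng/μL final) preincubated 10 min with compound (0.1 nM–100 μM, 1% DMSO) in pH 5.5 acetate/EDTA/L-cysteine buffer, then reacted 60 min at room temperature with Z-Gly-Pro-Arg-AMC. Stopped with 1 μM E64; fluorescence Ex 360/Em 460 nm; IC50 from background-subtracted percent of vehicle control.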
# [3] = Determination of metabolic stability with human liver microsomes; details: human, pooled human liver microsomes, pH 7.6
# recombinant human DPPI (Cathepsin C), sequence (P53634 231-394): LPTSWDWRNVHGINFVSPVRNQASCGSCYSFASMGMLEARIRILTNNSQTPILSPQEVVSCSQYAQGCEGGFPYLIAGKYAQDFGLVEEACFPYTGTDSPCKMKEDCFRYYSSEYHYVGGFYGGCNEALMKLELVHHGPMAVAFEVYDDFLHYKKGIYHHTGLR
# recombinant human DPPI (Cathepsin C), sequence (P53634 395-463): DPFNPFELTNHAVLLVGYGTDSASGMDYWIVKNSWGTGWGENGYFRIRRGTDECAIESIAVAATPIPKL
# recombinant human DPPI (Cathepsin C), sequence (P53634 25-134): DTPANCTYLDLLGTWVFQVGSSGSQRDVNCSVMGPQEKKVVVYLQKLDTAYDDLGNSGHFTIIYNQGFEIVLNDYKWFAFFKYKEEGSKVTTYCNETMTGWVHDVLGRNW
SMILES,IC50 [1] [nM],IC50 [2] [nM],half-life at 1 μM [3] [h]
"CN1C(=O)Cc2ccc(-c3ccc(C[C@@H](C#N)NC(=O)[C@H]4N[C@@H]5CC[C@H]4C5)c(F)c3)cc21 [Example 2, (1S,2S,4R)—N-[(1S)-1-cyano-2-[2-fluoro-4-(1-methyl-2-oxo-indolin-6-yl)phenyl]ethyl]-3-azabicyclo[2.2.1]heptane-2-carboxamide]",2,2800,> 2.08
CN1Cc2cc(-c3ccc(C[C@@H](C#N)NC(=O)[C@H]4N[C@@H]5CC[C@H]4C5)c(F)c3)ccc2S1(=O)=O [Example 169],–,5200,> 2.17
N#C[C@H](Cc1ccc([C@@H]2CCN3CCOC[C@H]3C2)cc1F)NC(=O)[C@H]1N[C@@H]2CC[C@H]1C2 [Example 283],–,3600,> 2.17
N#C[C@H](Cc1ccc(-n2cc(C(F)(F)F)cn2)cc1F)NC(=O)[C@H]1N[C@@H]2CC[C@H]1C2 [Example 285],–,8700,> 2.17
N#Cc1ccc2c(c1)[nH]c(=O)c1cc(CC(C#N)NC(=O)[C@H]3N[C@@H]4CC[C@H]3C4)c(F)cc12 (stereo partly drawn) [Example 292],0.9,–,1.57
CNC(=O)Cc1ccc2[nH]c(=O)c3cc(CC(C#N)NC(=O)[C@H]4N[C@@H]5CC[C@H]4C5)ccc3c2c1 (stereo partly drawn) [Example 306],7,–,> 2.17
N#CC(Cc1ccc2c(c1)c(=O)[nH]c1c(F)cc(F)cc12)NC(=O)[C@H]1N[C@@H]2CC[C@H]1C2 (stereo partly drawn) [Example 310],9.4,–,> 2.17
CS(=O)(=O)c1ccc2[nH]c(=O)c3cc(CC(C#N)NC(=O)[C@H]4N[C@@H]5CC[C@H]4C5)ccc3c2c1 (stereo partly drawn) [Example 313],13.6,–,> 2.17
N#C[C@H](Cc1ccc(N2CC3(CNC3)C2)cc1F)NC(=O)[C@H]1N[C@@H]2CC[C@H]1C2 [Example 327],3.4,–,> 2.17
CN(C)CCn1cc(-c2ccc(C[C@@H](C#N)NC(=O)[C@H]3N[C@@H]4CC[C@H]3C4)c(F)c2)ccc1=O [Example 342],1.3,–,> 2.17
CNc1nc2cc(-c3ccc(C[C@@H](C#N)NC(=O)[C@H]4N[C@@H]5CC[C@H]4C5)c(F)c3)ccc2[nH]1 [Example 347],8.5,–,> 2.17

# Second part, the compound after the results:
IC50 [1] [nM],IC50 [2] [nM],half-life at 1 μM [3] [h],SMILES
–,4000,> 2.17,COCCn1cc(-c2ccc(C[C@@H](C#N)NC(=O)[C@H]3N[C@@H]4CC[C@H]3C4)c(F)c2)cn1 [Example 44]
–,7900,> 2.17,COCCn1cc(-c2ccc(CC(C#N)NC(=O)[C@H]3N[C@@H]4CC[C@H]3C4)c(F)c2)cn1 (stereo partly drawn) [Example 97]
6.9,–,1.52,"Cn1c(=O)c2cc(CC(C#N)NC(=O)[C@H]3N[C@@H]4CC[C@H]3C4)ccc2c2ccc(Cl)cc21 (stereo partly drawn) [Example 305, (1S,2S,4R)—N-[2-(3-chloro-5-methyl-6-oxo-phenanthridin-8-yl)-1-cyano-ethyl]-3-azabicyclo[2.2.1]heptane-2-carboxamide]"
7.2,–,> 2.17,N#Cc1cc(F)c2[nH]c(=O)c3cc(CC(C#N)NC(=O)[C@H]4N[C@@H]5CC[C@H]4C5)ccc3c2c1 (stereo partly drawn) [Example 307]
8.3,–,> 2.17,N#CC(Cc1ccc2c(c1)c(=O)[nH]c1c(F)cccc12)NC(=O)[C@H]1N[C@@H]2CC[C@H]1C2 (stereo partly drawn) [Example 308]
14,–,> 2.17,N#CC(Cc1ccc2c(c1)c(=O)[nH]c1ccc(N)cc12)NC(=O)[C@H]1N[C@@H]2CC[C@H]1C2 (stereo partly drawn) [Example 314]
–,1500,> 2,N#C[C@H](Cc1ccc(N2CCN(C3CCOC3)CC2)cc1F)NC(=O)[C@H]1N[C@@H]2CC[C@H]1C2 (stereo partly drawn) [Example 331]
7.6,–,> 2.17,N#CC(Cc1ccc2c(c1)c(=O)[nH]c1c(C(=O)NC3CC3)cccc12)NC(=O)[C@H]1N[C@@H]2CC[C@H]1C2 (stereo partly drawn) [Example 341]
